Experimental data from US20250339425A1 (Northeastern University, priority 2024, published 2025).
Read-outs that look alike come from different tables or passages of the source.

What was measured:
[1] = test system: BzATP-induced release of IL-1β by human monocytic THP-1 cells; experiment: BzATP-induced release of IL-1β by LPS-primed monocytic THP-1 cells (ELISA); conditions: for inhibitory effect on IL-1β release at the lowest concentration tested: 1 nM; for inhibition of BzATP-induced release of IL-1β: LPS-primed THP-1 cells, ACh at 10 μM; for antagonism of the effect of ACh on IL-1β release: all concentrations investigated (1 nM to 100 μM), ACh 10 μM
Protocol: Monocytic THP-1 cells were primed with lipopolysaccharide (LPS; 1 μg/ml, 5 hours). Thereafter, the P2X7 receptor agonist BzATP (100 μM) was added for another 40 minutes to trigger IL-1β release. […] The IL-1β concentrations obtained after stimulation with BzATP+solvent were set to 100% and all other values were calculated accordingly. Data are presented as individual data points, the bar represents the median, and whiskers encompass the 25th to 75th percentile. *p≤0.05, different from LPS-primed cells stimulated with BzATP alone. Friedman test followed by the Wilcoxon signed-rank test.
The new compounds were tested for the ability to down-regulate the ATP-mediated release of 10 IL-1β by human monocytic THP-1 cells.
Monocytic THP-1 cells were primed with lipopolysaccharide (LPS, 1 μg/ml) for 5 hours and further stimulated them with BzATP (100 μg/ml) for 40 minutes to induce the maturation and release of IL-1β.
The monocytic THP-1 cell line was obtained from the German Collection of Microorganisms and Cell Cultures (Braunschweig, Germany). […] Thereafter, 0.5×10^6 cells/0.5 ml and per well were seeded in 48-well plates (Greiner Bio-One, Frickenhausen, Germany) as described previously.^27 The cells were primed with LPS (1 μg/ml; E. coli O26:B6, Merck, Darmstadt, Germany, Cat #L2654) for 5 h under 5% CO2 atmosphere at 37° C. […] After the treatment, cells were spun down (500 g, 8 min, 4° C.) to collect the cell-free supernatants, that were stored at −20° C. for later measurements of IL-1β and lactate dehydrogenase (LDH) activity.
To measure IL-1β concentrations in the cell-free supernatants the Human IL-1 beta/IL-1F2 DuoSet enzyme-linked immunosorbent assay (ELISA) from R&D Systems (Cat #DY201) was used according to the supplier's instructions. In parallel, LDH activity was measured to test for cell viability at the end of the cell culture experiments, using the CytoTox 96® Non-Radioactive Cytotoxicity Assay (Promega, Madison, WI, United States; Cat #G1780) according to the supplier's instructions.
Results obtained in the BzATP-induced IL-1β release experiments were analyzed using SPSS (Version 27, IBM, Armonk, NY, United States). The data were analyzed first by the Friedman test followed by the Wilcoxon signed-rank test. […] The number (n) of individual experiments is indicated in the Figures and refers to independent experiments, which were performed on different days with different cell passages.

[2] = target: human α7 nAChR (Homo sapiens, UniProt P36544)
[3] = target: T1, α9 nAChR (Homo sapiens, UniProt Q9UGM1); conditions: for EC50: read-out: α9 EC50
[4] = Plasma protein binding
[5] = In vitro metabolic stability in rat hepatocytes
[6] = In vitro metabolic stability in pooled human liver microsomes
[7] = test system: CFA-induced paw edema in mice; experiment: CFA-induced paw edema in mice; type: in vivo, mouse; conditions: CFA-treated mice; 10 mg/kg differing from vehicle
[8] = test system: locomotor activity of mice; experiment: Locomotor activity of mice (photocell activity cages); type: in vivo, mouse; conditions: 10 mg/kg, compared to vehicle-treated animals
Protocol: Mechanical thresholds were elevated by treatments with II (FIGS. 5A-5D). […] Therefore, the data in FIGS. 5A-5D are the mean±SD scores for each condition. Statistical analysis was conducted using a Kruskal-Wallis test followed by Mann-Whitney rank sum test at each time point following II treatment.
Interruptions of the photocell beams (two banks of eight cells each) were then recorded for the next 60 min. Data are expressed as number of photocell interruptions.

[9] = test system: CFA-induced inflammatory pain in mice; conditions: mouse, in vivo
Protocol: Experiments were conducted using adult (10-15 weeks) male and female C57BL/6J mice from Jackson Laboratory (Bar Harbor ME, USA): α7 WT and KO mice on a C57BL/6J background. Mice null for the α7 subunit along with their WT littermates were initially procured from Jackson Laboratory and later bred in an approved animal care facility at Virginia Commonwealth University. The breeding scheme involved crossing heterozygous mice and backcrossing progeny for at least 12 to 15 generations, to control for irregularities that might occur crossing solely mutant animals, to generate both mutant and WT animals. […] Then mice were retrieved from the vivarium and housed (4-5 mice per cage) for the duration of the study in a temperature- and humidity-controlled out-of-vivarium space on the same light/dark cycle. They were given ad libitum food and water. All experiments were performed during the light cycle.
Mice were injected intraplantarly with 20 μl of CFA (50%, diluted in mineral oil; Sigma-Aldrich). Mechanical sensitivity (see the measurement of the von Frey test) was measured before and 3 days after CFA injection.
The mechanical threshold was expressed as log 10 of 10× force (in milligrams), indicating the force of the von Frey hair to which the animal reacted (paw withdrawn, licking, or shaking). All behavioral testing on animals was performed in a blinded manner.

[10] = target: T1, α9 nAChR; experiment: cell-based
[11] = target: T2, α9α10 nAChR (Homo sapiens, UniProt Q9GZZ6+Q9UGM1); experiment: Inhibition of ACh-evoked currents, co-application with 60 μM ACh, oocytes expressing α9α10; type: cell-based; conditions: co-applied with 60 μM ACh; unit not printed for these values (α9 values in μM); read-out: IC50 as antagonist on α9α10
T2 construct: expressed in transfected cells; host or cells: Xenopus laevis oocytes injected with in vitro transcribed RNA
Protocol: (§1) FIGS. 13A-13B show inhibition concentration-response studies for chiral diMPP compounds (2R)PA-diMPP (8) and (2S)PA-diMPP (9), identified as α9 and α9α10 antagonists.
(§2) Experimental responses were measured relative to the preceding ACh control response. […] The transition from agonist to antagonist behavior in α7 to α9* nAChRs indicates a slightly bigger dialkyl tail on nitrogen, or perhaps more importantly, the asymmetry of the groups and potential for multiple rotamers is important for α9 agonism, while chirality is more important for α7 selectivity.
(§3) Two-electrode voltage-clamp experiments were conducted using OpusXpress 6000A (Molecular Devices, Union City CA, USA). Both the voltage and current electrodes were filled with 3 M KCl. Oocytes were voltage-clamped at −60 mV at room temperature. The oocytes were perfused with Ringer's solution (115 mM NaCl, 2.5 mM KCl, 1.8 mM CaCl2), 10 mM HEPES, 1 μM atropine, pH 7.2) at 2 ml/min. […] Drug applications were 12 s in duration followed by 181 s washout periods.

[12] = target: T1, α9 nAChR; experiment: Inhibition of ACh-evoked currents, co-application with 60 μM ACh, oocytes expressing α9; type: cell-based; parameters: expressed in transfected cells; host or cells: Xenopus laevis oocytes injected with in vitro transcribed RNA; conditions: co-applied with 60 μM ACh; read-out: IC50 as antagonist on α9
Protocol: as §1, §2, §3

[13] = test system: CFA-induced inflammatory pain in mice; conditions: previously reported α9 nAChR agonist; cited from earlier work
[14] = in vitro; conditions: BALB/c, mouse, pooled mouse plasma
[15] = Table 1, peak current, relative to ACh maximum
[16] = Table 4, chiral EMPPs and diMPPs
[17] = Table 1, unit not given (0.23 as 230 nM)
[18] = Table 1, net charge, relative to ACh maximum
[19] = read-out: α7 EC50, Table 1, unit inferred
[20] = read-out: α7 EC50, Table 4, unit inferred
[21] = read-out: α7 EC50, Table 2, unit inferred

T1 sequence (Q9UGM1 26-479 limits assumed): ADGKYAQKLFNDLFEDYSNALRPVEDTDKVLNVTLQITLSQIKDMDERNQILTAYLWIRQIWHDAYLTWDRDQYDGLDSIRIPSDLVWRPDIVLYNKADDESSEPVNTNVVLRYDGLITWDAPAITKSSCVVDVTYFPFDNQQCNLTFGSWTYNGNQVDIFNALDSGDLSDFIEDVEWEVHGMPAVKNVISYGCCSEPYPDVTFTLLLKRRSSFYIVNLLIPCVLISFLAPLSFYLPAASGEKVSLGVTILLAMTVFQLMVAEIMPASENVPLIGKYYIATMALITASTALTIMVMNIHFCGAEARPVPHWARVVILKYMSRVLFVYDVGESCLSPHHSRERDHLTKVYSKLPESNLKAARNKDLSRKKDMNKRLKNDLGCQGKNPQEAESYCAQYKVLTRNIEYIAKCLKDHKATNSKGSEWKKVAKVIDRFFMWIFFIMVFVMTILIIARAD
human α7 nAChR, sequence (P36544 23-502): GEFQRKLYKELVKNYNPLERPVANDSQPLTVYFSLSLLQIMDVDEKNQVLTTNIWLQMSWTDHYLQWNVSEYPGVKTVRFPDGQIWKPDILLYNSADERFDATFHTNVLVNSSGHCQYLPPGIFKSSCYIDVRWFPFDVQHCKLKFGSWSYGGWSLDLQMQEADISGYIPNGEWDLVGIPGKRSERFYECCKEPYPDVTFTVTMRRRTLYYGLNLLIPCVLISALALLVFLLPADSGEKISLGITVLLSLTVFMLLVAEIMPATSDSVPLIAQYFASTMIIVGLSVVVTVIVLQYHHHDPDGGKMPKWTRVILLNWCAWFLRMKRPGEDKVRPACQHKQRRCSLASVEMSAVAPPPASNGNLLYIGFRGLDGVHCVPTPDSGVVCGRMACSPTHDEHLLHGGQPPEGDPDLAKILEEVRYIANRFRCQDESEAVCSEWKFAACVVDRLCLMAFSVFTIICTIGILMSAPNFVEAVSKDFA
T2 sequence (Q9UGM1 26-479 limits assumed): as the sequence (Q9UGM1 26-479 limits assumed) above
T2 sequence (Q9GZZ6 25-450): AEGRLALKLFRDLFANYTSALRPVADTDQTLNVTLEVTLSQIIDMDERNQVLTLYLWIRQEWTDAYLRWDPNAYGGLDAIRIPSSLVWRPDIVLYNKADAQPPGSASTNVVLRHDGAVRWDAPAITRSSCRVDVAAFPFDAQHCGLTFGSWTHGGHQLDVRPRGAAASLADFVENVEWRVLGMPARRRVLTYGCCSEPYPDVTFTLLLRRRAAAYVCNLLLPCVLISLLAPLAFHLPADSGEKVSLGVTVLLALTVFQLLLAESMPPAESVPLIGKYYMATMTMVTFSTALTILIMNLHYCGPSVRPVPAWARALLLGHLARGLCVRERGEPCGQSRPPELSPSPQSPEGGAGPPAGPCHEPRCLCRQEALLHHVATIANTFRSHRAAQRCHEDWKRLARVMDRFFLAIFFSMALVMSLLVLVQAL

CC[N+]1(C)CCN(c2ccc(C#N)cc2)C[C@H]1C (stereo partly drawn) [(2R)r/s-pCN-EMPP]
inhibitory effect on IL-1β release at the lowest concentration tested [1]: moderate but significant inhibitory effects
inhibition of BzATP-induced release of IL-1β [1]: significantly inhibited

CC[N+]1(C)CCN(c2ccc(C#N)cc2)CC1C [(2S)r/s-pCN-EMPP]
inhibition of BzATP-induced release of IL-1β [1]: significantly inhibited
EC50 [2]: 26600 ± 9600 nM

CC[N+]1(C)CCN(c2ccc(C(=O)Nc3cccc(C)n3)cc2)CC1 [Compound 3f, reference compound]
α9 Imax [3, 15]: 1.19 ± 0.03
α9 Imax [3, 16]: 1.19 ± 0.03
EC50 [3, 17]: 510 ± 70 nM
EC50 ([3]; Table 4, unit inferred): 510 ± 70 nM
plasma protein binding [4]: 32%
clearance [5]: low clearance
clearance [6]: low clearance
α7 Imax [2, 18]: 0.40 ± 0.02
α7 Imax ([2]; Table 4): 0.40 ± 0.02
EC50 [2, 19]: 6100 ± 1100 nM
EC50 [2, 20]: 6100 ± 1100 nM

CC[N+]1(CC)CCN(c2ccc(NC(=O)c3cccc(C)n3)cc2)CC1.[I-] [Compound I, 1,1-Diethyl-4-(4-(6-methylpicolinamido)phenyl)piperazin-1-ium iodide]
α9 Imax [3, 15]: 1.24 ± 0.04
α9 Imax ([3]; Table 3, reverse amide GATs): 1.01 ± 0.03
EC50 [3, 17]: 1630 ± 200 nM
EC50 ([3]; Table 3, unit not printed (text gives 0.086 as 86 nM)): 230 ± 34 nM
α7 Imax [2, 18]: 0.14 ± 0.004
α7 Imax ([2]; Table 3): 0.41 ± 0.025
EC50 [2, 19]: 4680 ± 540 nM
EC50 ([2]; read-out: α7 EC50, Table 3, unit inferred): 78300 ± 11300 nM

CC[N+]1(C)CCN(c2ccc(NC(=O)c3cccc(C)n3)cc2)CC1 [Compound II, 1-Ethyl-1-methyl-4-(4-(6-methylpicolinamido)phenyl)piperazin-1-ium iodide]
paw edema [7]: significantly reduced paw edema
locomotor activity [8]: did not significantly alter locomotor activity
type of activity at α9 / α9* nAChR [3]: full agonist
α9 Imax [3, 15]: 1.01 ± 0.03
EC50 [3, 17]: 230 ± 34 nM
mechanical thresholds at the 72 h time point [9]: no significant effects
plasma protein binding [4]: 54%
clearance [5]: low clearance
clearance [6]: low clearance
α7 Imax [2, 18]: 0.41 ± 0.025
EC50 [2, 19]: 78300 ± 11300 nM

CC[N+]1(C)CCN(c2ccc(NC(C)=O)cc2)CC1 [Compound III, 4-(4-Acetamidophenyl)-1-ethyl-1-methylpiperazin-1-ium Iodide]
α9 Imax [3, 15]: 0.75 ± 0.04
EC50 [3, 17]: 2270 ± 490 nM
increase in potency relative to ACh ([3]; α9): 113 fold
EC50 [10]: 230 nM

CC[N+]1(C)CCN(c2ccc(C(=O)Nc3cccc(C)n3)cc2)C[C@H]1C (stereo partly drawn) [Compound IV-a, (2R)-1-ethyl-1,2-dimethyl-4-(4-((6-methylpyridin-2-yl)carbamoyl)phenyl)piperazin-1-ium iodide]
receptor selectivity α9 vs α7 [3]: selective towards α7
α9 Imax ([3]; Table 2, chiral compounds): 0.0521 ± 0.013
α9 Imax [3, 16]: 0.052 ± 0.013
EC50 ([3]; Table 2, unit inferred): 1930 ± 2250 nM
EC50 ([3]; Table 4, unit inferred): 1930 ± 2250 nM
inhibitory effect on IL-1β release at the lowest concentration tested [1]: moderate but significant inhibitory effects
inhibition of BzATP-induced release of IL-1β [1]: significantly inhibited
α7 Imax ([2]; Table 2, chiral compounds): 0.548 ± 0.02
α7 Imax ([2]; Table 4): 0.55 ± 0.02
EC50 [2, 21]: 7160 ± 1290 nM
EC50 [2, 20]: 7160 nM

Cc1cccc(NC(=O)c2ccc(N3CC[N+](C)(C)[C@@H](C)C3)cc2)n1 [Compound IV-e]
IC50 [11]: 4.33 ± 1.14 µM
receptor selectivity α9 vs α7 [3]: selective for α7
type of activity at α9 / α9* nAChR [3]: antagonists of the alpha 9 nicotinic acetylcholine receptor
α9 Imax ([3]; Table 2, chiral compounds): 0.04 ± 0.005
α9 Imax [3, 16]: 0.04 ± 0.005
type of activity at α9 / α9* nAChR ([3]; listed as (2S)PA-diMPP): lost nearly all agonist activity for α9* receptors
EC50 ([3]; Table 2, unit inferred): 800 ± 600 nM
EC50 ([3]; Table 4, unit inferred): 800 ± 600 nM
inhibition of BzATP-induced release of IL-1β [1]: significantly inhibited
antagonism of the effect of ACh on IL-1β release [1]: significantly antagonized the effect of ACh
α7 Imax ([2]; Table 2, chiral compounds): 0.397 ± 0.011
α7 Imax ([2]; Table 4): 0.397 ± 0.01
EC50 [2, 21]: 3490 ± 350 nM
EC50 [2, 20]: 3490 ± 350 nM
IC50 [12]: 240 ± 110 nM

CC[N+]1(C)CCN(c2ccc(C(=O)Nc3cccc(C)n3)cc2)C[C@@H]1C (stereo partly drawn) [IV-b]
receptor selectivity α9 vs α7 [3]: selective towards α9
α9 Imax ([3]; Table 2, chiral compounds): 0.670 ± 0.02
α9 Imax [3, 16]: 0.670 ± 0.02
EC50 ([3]; Table 2, unit inferred): 2090 ± 630 nM
EC50 ([3]; Table 4, unit inferred): 2090 ± 630 nM
inhibition of BzATP-induced release of IL-1β [1]: significantly inhibited
α7 Imax ([2]; Table 2, chiral compounds): 0.238 ± 0.004
α7 Imax ([2]; Table 4): 0.24 ± 0.004
EC50 [2, 21]: 7100 ± 490 nM
EC50 [2, 20]: 7100 ± 490 nM

Cc1cccc(NC(=O)c2ccc(N3CC[N+](C)(C)[C@H](C)C3)cc2)n1 [IV-f]
IC50 [11]: 0.406 ± 0.15 µM
receptor selectivity α9 vs α7 [3]: selective for α7
type of activity at α9 / α9* nAChR [3]: antagonists of the alpha 9 nicotinic acetylcholine receptor
α9 Imax ([3]; Table 2, chiral compounds): 0.0065 ± 0.72
α9 Imax [3, 16]: 0.0065 ± 0.72
type of activity at α9 / α9* nAChR ([3]; listed as (2R)PA-diMPP): lost nearly all agonist activity for α9* receptors
inhibition of BzATP-induced release of IL-1β [1]: significantly inhibited
antagonism of the effect of ACh on IL-1β release [1]: significantly antagonized the effect of ACh
α7 Imax ([2]; Table 2, chiral compounds): 0.426 ± 0.021
α7 Imax ([2]; Table 4): 0.426 ± 0.02
EC50 [2, 21]: 3060 ± 380 nM
EC50 [2, 20]: 3060 ± 380 nM
IC50 [12]: 210 ± 60 nM

CC[N+]1(C)CCN(c2ccc(NC(=O)c3cccc(Br)n3)cc2)CC1 [V-a]
α9 Imax ([3]; Table 3, reverse amide GATs): 0.936 ± 0.04
EC50 [10]: 440 ± 108 nM
EC50 [2]: 7100 ± 3170 nM
α7 Imax ([2]; Table 3): 0.094 ± 0.012

CC[N+]1(C)CCN(c2ccc(NC(=O)c3cccc(Cl)n3)cc2)CC1 [V-b]
α9 Imax ([3]; Table 3, reverse amide GATs): 1.00 ± 0.18
EC50 [10]: 560 ± 65 nM
EC50 [2]: 14000 nM
α7 Imax ([2]; Table 3): 0.10 ± 0.028

CC[N+]1(C)CCN(c2ccc(NC(=O)c3cccc(F)n3)cc2)CC1 [V-c]
α9 Imax ([3]; Table 3, reverse amide GATs): 1.2 ± 0.13
EC50 [10]: 810 ± 380 nM
α7 Imax ([2]; Table 3): 0.000 ± 0.000

CC[N+]1(C)CCN(c2ccc(NC(=O)c3ccc4ccccc4n3)cc2)CC1 [V-f]
α9 Imax ([3]; Table 3, reverse amide GATs): 1.008 ± 0.048
EC50 [10]: 157 nM
EC50 [2]: 2030 ± 540 nM
α7 Imax ([2]; Table 3): 0.124 ± 0.009

CC[N+]1(C)CCN(c2ccc(NC(=O)c3ccc(C)cn3)cc2)CC1 [V-h]
α9 Imax ([3]; Table 3, reverse amide GATs): 1.00 ± 0.08
EC50 [10]: 440 ± 140 nM
EC50 [2]: 315000 nM
α7 Imax ([2]; Table 3): 0.266 ± 0.33

CC[N+]1(C)CCN(c2ccc(NC(=O)c3ncc(C(F)(F)F)cc3Cl)cc2)CC1 [V-i]
α9 Imax ([3]; Table 3, reverse amide GATs): 1.23 ± 0.13
EC50 [10]: 810 ± 380 nM
α7 Imax ([2]; Table 3): 0.001 ± 0.14

CC[N+]1(CC)CCN(c2ccc(C#N)cc2)CC1 [pCN-diEPP]
effective duration against CFA-induced pain like behaviors [13]: 3 to 6 h

CCN(CC)CCOC(=O)c1ccc(N)cc1 [procaine]
half-life at 1 μM [14]: < 5 min
